Consider 16 compounds from patent US20200055817A1 (AbbVie Deutschland GmbH & Co. KG, priority 2016, published 2020).

Where a name gives a salt, the structure may show the parent alone. Some results are limits rather than exact numbers.

Type in all cases: cell-based
The target of assay [1] is T1, human EDG8 (S1PR5) receptor (Homo sapiens, UniProt Q9H228).
T1 construct: carries the transgenes human EDG8 (S1PR5) receptor (Acession number NP_110387.1); expressed in transfected cells; host or cells: CHO-A21-EDG8#12 (CHO clone co-expressing mitochondrial aequorin and chimaeric Gaqi5)
T1 sequence (Q9H228 whole entry): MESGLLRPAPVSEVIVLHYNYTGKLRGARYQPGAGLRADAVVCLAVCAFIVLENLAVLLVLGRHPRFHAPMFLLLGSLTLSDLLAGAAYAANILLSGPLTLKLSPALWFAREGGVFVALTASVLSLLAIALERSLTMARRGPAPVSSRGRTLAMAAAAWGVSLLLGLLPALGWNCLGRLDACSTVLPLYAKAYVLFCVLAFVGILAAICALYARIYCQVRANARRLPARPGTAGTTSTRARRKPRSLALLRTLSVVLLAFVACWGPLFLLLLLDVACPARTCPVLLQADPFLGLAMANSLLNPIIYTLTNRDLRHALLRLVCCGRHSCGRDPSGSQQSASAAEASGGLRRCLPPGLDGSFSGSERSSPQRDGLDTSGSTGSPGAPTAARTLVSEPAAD
Nature of the assay: Aequorin assay, agonist potency, CHO-A21-EDG8#12 cells. The conditions noted are these: agonist mode, aequorin luminescence; read-out: S1P5 EC50 range #. Summed up: (§1)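 CHO cells coexpressing receptor, mitochondrial aequorin and Gαqi5 (S1P3 pool: GNA16) were loaded overnight at RT with 5 μM coelenterazine h in 0.1% fatty-acid-free BSA buffer. Cells were injected onto compound, luminescence recorded 90 s and integrated, normalised to digitonin or 20 μM ATP; sigmoidal fit.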

Assay [2] has as its target T2, human EDG1 (S1PR1) receptor (Homo sapiens, UniProt P21453).
T2 construct: expressed in transfected cells; host or cells: CHO-A21-Edg1#17 (CHO clone co-expressing mitochondrial aequorin and chimaeric Gaqi5)
The experiment in a line: Aequorin assay, agonist potency, CHO-A21-Edg1#17 cells. The conditions noted are these: agonist mode, aequorin luminescence; read-out: S1P1 EC50. In a few lines:
as §1

Assay [3] deals with T3, human EDG3 (S1PR3) receptor (Homo sapiens, UniProt Q99500).
T3 construct: expressed in transfected cells; host or cells: CHO-A2-S1P3 Mix (CHO cell pool co-expressing mitochondrial aequorin and GNA16)
T3 sequence (Q99500 whole entry): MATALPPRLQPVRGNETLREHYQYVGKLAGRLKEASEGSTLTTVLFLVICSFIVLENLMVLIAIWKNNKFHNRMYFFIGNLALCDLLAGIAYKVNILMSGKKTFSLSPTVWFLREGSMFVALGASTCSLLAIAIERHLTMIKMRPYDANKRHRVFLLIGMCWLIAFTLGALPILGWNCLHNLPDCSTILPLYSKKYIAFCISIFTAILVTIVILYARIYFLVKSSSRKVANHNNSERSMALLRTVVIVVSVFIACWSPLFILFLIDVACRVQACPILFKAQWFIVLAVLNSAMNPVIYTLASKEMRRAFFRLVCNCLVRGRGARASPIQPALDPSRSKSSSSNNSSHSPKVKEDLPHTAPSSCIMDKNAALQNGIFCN
The experiment in a line: Aequorin assay, agonist potency, CHO-A2-S1P3 Mix cells. The conditions noted are these: agonist mode, aequorin luminescence. As for the experimental part:
Agonistic activity was measured as described below.
Cell clone CHO-A21-Edg1#17 carries the transgenes human EDG1 (S1PR1) receptor (Accession number NP_001391.2), mitochondrially targeted Aequorin (active part corresponds to accession number 1SL8_A) and chimaeric Gaqi5=Gaq modified with the 5 C-terminal amino-acids replaced with those of the Gai protein (DCGLF). CHO-A2-S1P3 Mix is a cell pool ectopically expressing human EDG3 (S1PR3) receptor (Accession number NP_005217.2) mitochondrially targeted Aequorin (active part has a sequence similar to accession number AY601106.1) and GNA16 (Accession number NP_002059.3). Cell clone CHO-A21-EDG8#12 carries the transgenes human EDG8 (S1PR5) receptor (Acession number NP_110387.1), mitochondrially expressed Aequorin (active part corresponds to accession number 1SL8_A) and chimaeric Gaqi5 (Gaq modified to present the 5 last amino-acids of the Gai protein “DCGLF”; see above). Cells are grown to mid-log phase in culture medium (HAM's F12, 10% FBS, 100 IU/mL penicillin, 100 μg/mL streptomycin, 250 μg/mL Zeocin, 400 μg/mL G418). 18 hours prior to frozen cells preparation, the medium is changed to remove the antibiotics.
18 hours prior to the test, vials of frozen cells are quickly thawed in a 37° C. water bath, cells are recovered by centrifugation and resuspended in assay buffer (DMEM/HAM's F12 with HEPES, without phenol red+0.1% fatty acid-free BSA). Cells are gently agitated in suspension overnight at RT in presence of 5 μM of Coelenterazine h (Molecular Probes). On the day of the test, cells are diluted to their final working concentrations in assay buffer and agitated in suspension for 1 h at RT. Cells are then placed in the luminescence reader (Hamamatsu Functional Drug Screening System 6000, FDSS6000). During cells incubation, compounds are prepared in 100% DMSO, and subsequently diluted in assay buffer. Compounds are then dispensed in the assay plate (black, clear-bottom, 384-well plate). After binding of agonists to the human S1P receptor the intracellular calcium concentration increases and binding of calcium to the Aequorin/Coelenterazine complex leads to an oxidation reaction of coelenterazine, which results in the production of Aequorin, coelenteramide, CO2 and light (Dmax 469 nm). The luminescent response is dependent on the agonist concentration. For agonist testing, 30 μL of cell suspension are injected on 30 μL of test compound or reference agonist in the assay plate. The resulting emission of light is recorded for 90 seconds using the FDSS6000. Dose response curves with the reference compounds are performed before testing the compounds. S1P is the reference agonist and JTE-013 the reference antagonist for S1P2.
Luminescence data are integrated over the reading interval for agonist and antagonist modes. To standardize the emission of recorded light (determination of the “100% signal”) across plates and across different experiments, some of the wells contain 100 μM digitonin or a saturating concentration of ATP (20 μM). Plates also contain the reference agonist at a concentration equivalent to the EC80 obtained during the test validation and the EC100. Dose-response data from test compounds were analyzed with XLfit (IDBS) software using nonlinear regression applied to a sigmoidal dose-response model and the following equation: […]

The target of assay [4] is T4, S1P4 (Homo sapiens, UniProt O95977).
T4 sequence (O95977 1-384): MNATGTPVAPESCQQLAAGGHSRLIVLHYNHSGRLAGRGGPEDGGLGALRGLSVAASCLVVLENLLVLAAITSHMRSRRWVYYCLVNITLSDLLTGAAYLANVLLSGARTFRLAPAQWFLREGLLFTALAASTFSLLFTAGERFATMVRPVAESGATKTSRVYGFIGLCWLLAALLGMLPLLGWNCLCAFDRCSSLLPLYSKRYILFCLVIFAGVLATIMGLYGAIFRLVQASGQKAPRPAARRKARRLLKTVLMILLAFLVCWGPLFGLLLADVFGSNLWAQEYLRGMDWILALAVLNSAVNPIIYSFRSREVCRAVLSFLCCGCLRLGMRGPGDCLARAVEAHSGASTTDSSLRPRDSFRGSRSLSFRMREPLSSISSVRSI
The experiment in a line: Aequorin assay, agonist potency, S1P4. The conditions noted are these: agonist mode, aequorin luminescence. Summed up:
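Cells loaded overnight at RT with 5 μM coelenterazine h in DMEM/HAM's F12 with HEPES plus 0.1% fatty acid-free BSA, then injected onto compounds; agonist-induced calcium luminescence recorded for 90 s and integrated. Signal normalised to digitonin (100 μM) or ATP (20 μM) wells, S1P as reference agonist; sigmoidal nonlinear regression.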

T2 sequence (P21453 whole entry): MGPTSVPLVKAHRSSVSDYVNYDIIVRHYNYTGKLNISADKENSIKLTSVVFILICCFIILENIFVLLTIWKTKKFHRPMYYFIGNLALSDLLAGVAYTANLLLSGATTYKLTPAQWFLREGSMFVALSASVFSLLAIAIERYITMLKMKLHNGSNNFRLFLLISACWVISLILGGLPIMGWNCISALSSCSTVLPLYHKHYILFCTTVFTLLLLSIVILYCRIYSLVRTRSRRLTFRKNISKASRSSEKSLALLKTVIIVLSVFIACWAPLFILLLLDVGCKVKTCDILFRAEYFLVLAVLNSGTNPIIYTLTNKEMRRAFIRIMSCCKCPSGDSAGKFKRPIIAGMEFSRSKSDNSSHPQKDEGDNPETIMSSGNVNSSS

With `O=C(O)C1(CN2CC3(Cc4ccc(-c5ccc(OCc6cccc(F)c6)cc5)cc4C3)C2)CC1` [Example 50, 1-((5′-(4-((3-fluorobenzyl)oxy)phenyl)-1′,3′-dihydrospiro[azetidine-3,2′-inden]-1-yl)methyl)cyclopropanecarboxylic acid], the 50% effective concentration (EC50) in assay [1] is not above 10 nM; in assay [2], more than 1000 nM; in assay [3] it was more than 1000 nM; in assay [4], less than 1000 nM.

Take `O=C(O)CN1CC2(Cc3ccc(OCc4cc(Cl)ccc4Cl)cc3C2)C1` [Example 23, 2,2,2-trifluoroacetic acid compound with 2-(5′-((2,5-dichlorobenzyl)oxy)-1′,3′-dihydrospiro[azetidine-3,2′-inden]-1-yl)acetic acid (1:1)]: the EC50 in assay [1] was not above 10 nM; in assay [2] it was more than 1000 nM; in assay [3], more than 1000 nM; in assay [4], less than 1000 nM.

Regarding `O=C(O)CN1CC2(Cc3ccc(OCc4c(F)cccc4C4CC4)cc3C2)C1` [Example 110, 2-(5′-((2-cyclopropyl-6-fluorobenzyl)oxy)-1′,3′-dihydrospiro[azetidine-3,2′-inden]-1-yl)acetic acid], the concentration giving a half-maximal response (EC50) in assay [1] was not above 10 nM; in assay [2], more than 1000 nM; in assay [3] it was more than 1000 nM; in assay [4], less than 1000 nM.

As for `O=C(O)CN1CC2(Cc3ccc(OCc4ccc(Cl)c(Cl)c4)cc3C2)C1` [Example 25, 2,2,2-trifluoroacetic acid compound with 2-(5′-((3,4-dichlorobenzyl)oxy)-1′,3′-dihydrospiro[azetidine-3,2′-inden]-1-yl)acetic acid (1:1)], the EC50 in assay [1] was 10 to 100 nM; in assay [2] it was more than 1000 nM; in assay [3], more than 1000 nM; in assay [4], less than 1000 nM.

Take `Cc1cccc(C)c1COc1ccc2c(c1)CC1(C2)CN(CC2(C(=O)O)CC2)C1` [Example 39, 1-((5′-((2,6-dimethylbenzyl)oxy)-1′,3′-dihydrospiro[azetidine-3,2′-inden]-1-yl)methyl)cyclopropanecarboxylic acid compound with 2,2,2-trifluoroacetic acid (1:1)]: the EC50 in assay [1] is not above 10 nM; in assay [2], more than 1000 nM; in assay [3] it was more than 1000 nM; in assay [4] it was less than 1000 nM.

In the case of `CCc1cccc(F)c1COc1ccc2c(c1)CC1(CCN(CC(=O)O)CC1)C2` [Example 159, 2-(5-((2-ethyl-6-fluorobenzyl)oxy)-1,3-dihydrospiro[indene-2,4′-piperidin]-1′-yl)acetic acid hydrochloride], the concentration giving a half-maximal response (EC50) in assay [1] was not above 10 nM; in assay [2] it was more than 1000 nM; in assay [3], more than 1000 nM; in assay [4] it was less than 1000 nM.

Regarding `CCc1cccc(Cl)c1COc1ccc2c(c1)CC1(C2)CN(CCC(=O)O)C1` [Example 7, 3-(5′-((2-chloro-6-ethylbenzyl)oxy)-1′,3′-dihydrospiro[azetidine-3,2′-inden]-1-yl)propanoic acid hydrochloride], the concentration for a half-maximal effect (EC50) was not above 10 nM in assay [1], more than 1000 nM in assay [2], more than 1000 nM in assay [3] and less than 1000 nM in assay [4].

`CCc1cccc(Cl)c1COc1ccc2c(c1)CC1(CCN(CC(=O)O)CC1)C2` [Example 161, 2-(5-((2-chloro-6-ethylbenzyl)oxy)-1,3-dihydrospiro[indene-2,4′-piperidin]-1′-yl)acetic acid hydrochloride]: the 50% effective concentration (EC50) in assay [1] was not above 10 nM; in assay [2], more than 1000 nM; in assay [3] it was more than 1000 nM; in assay [4], less than 1000 nM.

With `O=C(O)C1(CN2CC3(Cc4ccc(OCCc5c(Cl)cccc5Cl)cc4C3)C2)CC1` [Example 59, 1-((5′-(2,6-dichlorophenethoxy)-1′,3′-dihydrospiro[azetidine-3,2′-inden]-1-yl)methyl)cyclopropanecarboxylic acid], the EC50 in assay [1] is not above 10 nM; in assay [2], more than 1000 nM; in assay [3] it was more than 1000 nM; in assay [4], less than 1000 nM.

Consider `O=C(O)CN1CC2(Cc3ccc(OCc4c(Cl)cccc4C4CC4)cc3C2)C1` [Example 15, 2-(5′-((2-chloro-6-cyclopropylbenzyl)oxy)-1′,3′-dihydrospiro[azetidine-3,2′-inden]-1-yl)acetic acid], for which the 50% effective concentration (EC50) in assay [1] was not above 10 nM; in assay [2], more than 1000 nM; in assay [3], more than 1000 nM; in assay [4], less than 1000 nM.

Regarding `O=C(O)CN1CCC2(CC1)Cc1ccc(OCc3c(Cl)cccc3Cl)cc1C2` [Example 160, 2-(5-((2,6-dichlorobenzyl)oxy)-1,3-dihydrospiro[indene-2,4′-piperidin]-1′-yl)acetic acid], the half-maximal effective concentration (EC50) is not above 10 nM in assay [1], more than 1000 nM in assay [2], more than 1000 nM in assay [3] and less than 1000 nM in assay [4].

For `O=C(O)CN1CC2(Cc3ccc(OCc4cccc(Cl)c4)cc3C2)C1` [Example 16, 2-(5′-((3-chlorobenzyl)oxy)-1′,3′-dihydrospiro[azetidine-3,2′-inden]-1-yl)acetic acid compound with acetic acid (1:1)], the half-maximal effective concentration (EC50) is not above 10 nM in assay [1], more than 1000 nM in assay [2], more than 1000 nM in assay [3] and less than 1000 nM in assay [4].

As for `O=C(O)CN1CC2(Cc3ccc(OCc4c(Cl)cccc4Cl)cc3C2)C1` [Example 109, 2-(5′-((2,6-dichlorobenzyl)oxy)-1′,3′-dihydrospiro[azetidine-3,2′-inden]-1-yl)acetic acid], the half-maximal effective concentration (EC50) in assay [1] is not above 10 nM; in assay [2], more than 1000 nM; in assay [3], more than 1000 nM; in assay [4] it was less than 1000 nM.

For `O=C(O)CN1CC2(Cc3ccc(OCc4ccccc4)cc3C2)C1` [Example 8, 2-(5′-(benzyloxy)-1′,3′-dihydrospiro[azetidine-3,2′-inden]-1-yl)acetic acid], the EC50 in assay [1] was 100 to 1000 nM; in assay [2], more than 1000 nM; in assay [3], more than 1000 nM; in assay [4], less than 1000 nM.

Turning to `O=C(O)CN1CC2(Cc3ccc(OCCc4ccccc4C(F)(F)F)cc3C2)C1` [Example 62], the 50% effective concentration (EC50) in assay [1] was not above 10 nM; in assay [2], more than 1000 nM; in assay [3], more than 1000 nM; in assay [4] it was less than 1000 nM.

With `O=C(O)CN1CC2(Cc3ccc(OCc4ccccc4C4CC4)cc3C2)C1` [Example 111, 2-(5′-((2-cyclopropylbenzyl)oxy)-1′,3′-dihydrospiro[azetidine-3,2′-inden]-1-yl)acetic acid], the EC50 in assay [1] was not above 10 nM; in assay [2] it was more than 1000 nM; in assay [3] it was more than 1000 nM; in assay [4], less than 1000 nM.
